{"source": "BindingDB's records for patent US10117944", "about": "(Madrigal Pharmaceuticals, 2018)", "target": "Receptor tyrosine-protein kinase erbB-2 (Homo sapiens, UniProt P04626)", "sequence (P04626 whole entry)": "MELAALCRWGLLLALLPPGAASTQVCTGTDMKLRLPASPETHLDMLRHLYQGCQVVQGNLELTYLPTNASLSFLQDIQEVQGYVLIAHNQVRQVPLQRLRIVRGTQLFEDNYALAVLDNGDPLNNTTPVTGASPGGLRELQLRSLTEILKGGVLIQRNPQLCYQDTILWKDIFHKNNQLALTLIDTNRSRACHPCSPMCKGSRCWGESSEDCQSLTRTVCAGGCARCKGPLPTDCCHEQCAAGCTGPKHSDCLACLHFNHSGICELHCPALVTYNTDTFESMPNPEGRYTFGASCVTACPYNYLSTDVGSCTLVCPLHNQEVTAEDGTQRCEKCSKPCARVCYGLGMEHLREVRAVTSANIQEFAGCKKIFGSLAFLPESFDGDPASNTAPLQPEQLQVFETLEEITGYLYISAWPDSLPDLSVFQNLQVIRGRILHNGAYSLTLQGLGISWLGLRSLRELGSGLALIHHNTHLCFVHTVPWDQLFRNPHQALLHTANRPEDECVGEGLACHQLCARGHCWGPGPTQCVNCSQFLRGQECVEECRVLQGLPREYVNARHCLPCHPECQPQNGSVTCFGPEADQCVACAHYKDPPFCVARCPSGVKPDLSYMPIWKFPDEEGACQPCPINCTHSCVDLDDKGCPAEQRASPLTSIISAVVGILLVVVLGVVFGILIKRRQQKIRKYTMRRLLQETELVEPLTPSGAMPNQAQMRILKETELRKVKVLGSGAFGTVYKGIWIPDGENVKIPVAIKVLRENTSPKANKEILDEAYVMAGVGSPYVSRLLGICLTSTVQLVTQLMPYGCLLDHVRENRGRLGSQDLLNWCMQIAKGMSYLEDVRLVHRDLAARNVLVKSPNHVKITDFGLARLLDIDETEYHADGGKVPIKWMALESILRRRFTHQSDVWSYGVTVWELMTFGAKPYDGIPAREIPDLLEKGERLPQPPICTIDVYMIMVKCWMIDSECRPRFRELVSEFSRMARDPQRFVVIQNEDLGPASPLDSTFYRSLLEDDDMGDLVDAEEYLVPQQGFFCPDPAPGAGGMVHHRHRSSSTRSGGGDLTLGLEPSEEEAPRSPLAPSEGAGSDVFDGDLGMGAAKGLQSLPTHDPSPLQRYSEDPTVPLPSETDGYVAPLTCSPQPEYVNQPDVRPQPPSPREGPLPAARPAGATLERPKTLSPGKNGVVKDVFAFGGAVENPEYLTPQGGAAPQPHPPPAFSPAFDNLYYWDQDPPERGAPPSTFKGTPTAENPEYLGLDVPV", "assay": "HER2 Degradation Assay with BT-474 Cell Line", "text": "HER2 has emerged as a key target for anticancer drugs due to its intrinsic involvement in the phosphatidylinositol-3-kinase-Akt/protein kinase B (PI3 K-Akt) and the mitogen-activated protein kinase (MAPK) pathways, both of which suppress apoptosis and promote tumor cell survival, gene transcription, angiogenesis, cellular proliferation, migration, mitosis, and differentiation. The degradation of HER2 is a measure of efficacy of anticancer therapeutics that target Hsp90. Accordingly, the SDC-TRAP molecules of the invention that comprise a binding moiety that binds Hsp90 were tested in the following HER2 degradation assay.BT-474 cells (human breast cancer cell line ATCC HTB-20) were obtained from ATCC and seeded into 12-well tissue culture plates at 0.2x106/1.8 mL/well. […] Each test compound was titrated in 4-fold dilutions from 5 μM to 78 nM with DMSO and 200 μL of the titration was added to each well of the cell plate. The DMSO final concentration was 0.2%. Cells were incubated overnight at 37° C. in 5% CO2.Media was decanted from the plate, cells were washed 1x in PBS. 400 μL trypsin (EDTA) per well was added, and the cells were incubated for 2 to 3 minutes. […] The cytometer readout was normalized and the potency of each compound was evaluated with IC50 calculated with XLfit software.", "data": [{"smiles": "CC(C)C[C@H](NC(=O)[C@H](Cc1ccccc1)NC(=O)c1cnccn1)B1O[C@H]2C[C@H]3C[C@H](C3(C)C)[C@@]2(CC(=O)N2CCC(CCn3ccc4cc(N(C(=N)c5cc(C(C)C)c(O)cc5O)C(N)=O)ccc43)CC2)O1", "note": "[US10117944, Compound SDC-TRAP-0245]", "values": [{"measurement": "IC50", "value": 117, "unit": "nM"}]}]}
